Molecules are shown by their SMILES.

What is called IC50 is the concentration that gives 50% inhibition. Read a low IC50 as greater potency.

Chain of USP1/UAF1 (O94782 whole entry): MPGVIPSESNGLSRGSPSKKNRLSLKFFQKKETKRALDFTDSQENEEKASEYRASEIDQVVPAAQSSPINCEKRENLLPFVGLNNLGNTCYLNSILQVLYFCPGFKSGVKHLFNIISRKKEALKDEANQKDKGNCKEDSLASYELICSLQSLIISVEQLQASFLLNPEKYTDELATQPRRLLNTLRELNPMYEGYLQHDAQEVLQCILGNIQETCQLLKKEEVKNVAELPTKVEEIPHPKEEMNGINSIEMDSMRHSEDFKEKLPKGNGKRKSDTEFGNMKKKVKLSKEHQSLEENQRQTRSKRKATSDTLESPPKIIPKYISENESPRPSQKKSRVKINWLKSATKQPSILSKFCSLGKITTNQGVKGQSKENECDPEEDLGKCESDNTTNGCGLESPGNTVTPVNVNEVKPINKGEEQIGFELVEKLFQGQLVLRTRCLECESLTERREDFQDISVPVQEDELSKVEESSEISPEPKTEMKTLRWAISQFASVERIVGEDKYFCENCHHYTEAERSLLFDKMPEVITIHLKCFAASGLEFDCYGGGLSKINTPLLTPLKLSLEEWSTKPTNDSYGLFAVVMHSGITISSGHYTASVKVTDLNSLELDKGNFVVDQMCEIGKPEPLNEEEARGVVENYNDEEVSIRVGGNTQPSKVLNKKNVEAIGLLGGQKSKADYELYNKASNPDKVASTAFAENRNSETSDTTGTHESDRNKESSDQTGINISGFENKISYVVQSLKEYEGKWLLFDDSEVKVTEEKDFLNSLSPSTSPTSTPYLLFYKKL
Chain of USP1/UAF1 (Q8TAF3 whole entry partner): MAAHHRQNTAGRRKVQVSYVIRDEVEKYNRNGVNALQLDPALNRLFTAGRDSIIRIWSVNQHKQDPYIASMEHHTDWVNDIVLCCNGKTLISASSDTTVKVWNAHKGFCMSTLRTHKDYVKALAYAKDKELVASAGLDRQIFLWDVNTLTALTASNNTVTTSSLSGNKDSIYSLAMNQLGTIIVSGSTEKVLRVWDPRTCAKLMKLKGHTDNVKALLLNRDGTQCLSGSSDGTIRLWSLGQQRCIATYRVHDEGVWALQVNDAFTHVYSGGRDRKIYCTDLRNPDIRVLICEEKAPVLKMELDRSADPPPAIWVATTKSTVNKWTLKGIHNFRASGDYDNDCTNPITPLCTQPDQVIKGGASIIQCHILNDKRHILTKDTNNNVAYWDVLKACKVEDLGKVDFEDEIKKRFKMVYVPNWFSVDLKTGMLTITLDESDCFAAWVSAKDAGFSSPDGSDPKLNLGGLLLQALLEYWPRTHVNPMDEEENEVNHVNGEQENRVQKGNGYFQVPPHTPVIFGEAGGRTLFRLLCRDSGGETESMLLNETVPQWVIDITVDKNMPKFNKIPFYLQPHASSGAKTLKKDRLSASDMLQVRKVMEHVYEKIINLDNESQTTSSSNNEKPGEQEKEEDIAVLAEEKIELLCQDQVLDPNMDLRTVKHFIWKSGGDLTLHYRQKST

One test concerns the target USP1/UAF1 (Homo sapiens (Human), UniProt O94782). Briefly: Deubiquitination assay for USP1/UAF1 activity (ubiquitin-rhodamine 110). The conditions noted are these: Table 3; 0.05 nM USP1/UAF1, 150 nM ubiquitin-rhodamine. It is filed as biochemical. As for the experimental part: Certain Compounds of the Disclosure were assessed for USP1/UAF1 activity in a Ubiquitin Rhodamine assay modified from those described previously.
Deubiquitinase activity was measured using ubiquitin-rhodamine 110 as a substrate. Cleavage of the amide bond between rhodamine and the c-terminal glycine of ubiquitin yields an increase in fluorescence signal. The assay was conducted in 20 ul total volume of assay buffer (50 mM Tris-HCl, pH 7.8, 0.5 mM EDTA, 0.01% Bovine Serum Albumin, 1 mM DTT, 0.01% Tween-20), and 0.05 nM USP1/UAF1 enzyme.
Compounds, dissolved in DMSO were tested in dose response format, beginning at 10 uM.
Compounds depicted below were added to enzyme/assay buffer mix and incubated 10 min.
Data for all assay formats was calculated as percent inhibition compared with control wells. […] IC50 values were calculated using the standard four parameter curve fitting algorithm in either Prism GraphPad (La Jolla, Calif.) software, or Collaborative Drug Discovery (Burlingame, Calif.) CDD Vault.
The molecule `COc1ncnc(C2CC2)c1-c1ncc2cnn(Cc3ccc(-c4nc(C(F)(F)F)c[nH]4)cc3)c2n1` [drawing 765] gave an IC50 of 0.01 to 0.1 µM. Still for that read-out and setting: as for `COc1ncnc(OC)c1-c1ncc2cnn(Cc3ccc(-c4nc(C(F)(F)F)cn4C)cc3)c2n1` [drawing 766], the figure is 0.01 to 0.1 µM; as for `CCn1cc(C(F)(F)F)nc1-c1ccc(Cn2ncc3cnc(-c4c(OC)ncnc4C4CC4)nc32)cn1` [drawing 767], 0.01 to 0.1 µM.

The molecule `COc1ncnc(C2CC2)c1-c1ncc2cnn(Cc3ccc(-n4nc(C(F)(F)F)cc4OC)nc3)c2n1` [drawing 768] yielded a half-maximal inhibitory concentration (IC50) of 0.01 to 0.1 µM. For the molecule `COc1ncnc(C2(C)CC2)c1-c1ncc2cnn(Cc3ccc(-c4nc(C(F)(F)F)cn4C)cc3)c2n1` [drawing 769], the IC50 is 0.01 to 0.1 µM.

As for `COc1ncnc(C2CC2)c1-c1ncc2cnn(Cc3ccc(-c4nc(C(F)(F)F)cn4C4COC4)cc3)c2n1` [drawing 770], the IC50 lay in the range of 0.01 to 0.1 µM. Same read-out and setting: the result for `CCn1cc(C(F)(F)F)nc1-c1ccc(Cn2ncc3cnc(-c4c(C5CC5)cnn4CC)nc32)cc1` [drawing 771] reads 0.01 to 0.1 µM.

Take `COc1ncnc(C(C)(C)F)c1-c1ncc2cnn(Cc3ccc(-c4nc(C(F)(F)F)cn4C)cc3)c2n1` [drawing 772]: the half-maximal inhibitory concentration (IC50) lay in the range of 0.01 to 0.1 µM. The same measure, in the same setting: the result for `COc1ncnc(C2CC2)c1-c1ncc2cnn(Cc3ccc(-c4nc(C(F)(F)F)c5n4CCNC5)cc3)c2n1` [drawing 773] reads 0.01 to 0.1 µM. On the same count and under the same terms, as for `COc1ncnc(C2CC2)c1-c1ncc2cnn(Cc3ccc(-c4nc(C(F)(F)F)cn4C4CN(C)C4)cc3)c2n1` [drawing 775], the figure is 0.01 to 0.1 µM; as for `Cc1ncnc(C(C)C)c1-c1ncc2cnn(Cc3ccc(-n4nc(C(F)(F)F)cc4C)cc3)c2n1` [drawing 776], 0.01 to 0.1 µM. With `COc1ncnc(C2CC2)c1-c1ncc2cnn(Cc3ccc(-c4nc(C(F)(F)F)n(C)n4)cc3)c2n1` [drawing 778], the IC50 lay within 0.01 to 0.1 µM. Molecule `CSc1ncnc(C)c1-c1ncc2cnn(Cc3ccc(-n4nc(C(F)(F)F)cc4C)cc3)c2n1` [drawing 779] gave an IC50 of 0.01 to 0.1 µM. In turn, `COCCOc1ncnc(C2CC2)c1-c1ncc2cnn(Cc3ccc(-n4nc(C(F)(F)F)cc4C)cc3)c2n1` [drawing 781] registered an IC50 of 0.1 to 0.2 µM. Same read-out and setting: as for `COc1ncnc(C)c1-c1ncc2cnn(Cc3ccc(-n4nc(C(F)(F)F)cc4C)cc3)c2n1` [drawing 784], the figure is 0.1 to 0.2 µM.

In the case of `COCCOc1ncnc(C2CC2)c1-c1ncc2cnn(Cc3ccc(-c4nc(C(F)(F)F)cn4C)cc3)c2n1` [drawing 787], the IC50 is greater than 0.2 µM. On the same count and under the same terms, the result for `COCCOc1ncnc(C)c1-c1ncc2cnn(Cc3ccc(-n4nc(C(F)(F)F)cc4C)cc3)c2n1` [drawing 789] reads greater than 0.2 µM; that for `COc1nc(C)c(-c2ncc3cnn(Cc4ccc(-c5nc(C(F)(F)F)cn5C)cc4)c3n2)c(OC)n1` [drawing 793], greater than 0.2 µM; that for `Cc1cc(C(F)(F)F)nn1-c1ccc(Cn2ncc3cnc(-c4cccnc4C#N)nc32)cc1` [drawing 797], greater than 0.2 µM.

The same test, now with this note: Table 4; 0.05 nM USP1/UAF1, 150 nM ubiquitin-rhodamine.
As for `CCn1cc(C(F)(F)F)nc1-c1ccc(Cn2nc(SC)c3cnc(-c4c(OC)ncnc4C4CC4)nc32)cc1` [drawing 800], the IC50 fell in the range of 0.01 to 0.1 µM.

In turn, `CCn1cc(C(F)(F)F)nc1-c1ccc(Cn2nc(SCc3ccc(OC)cc3)c3cnc(-c4c(OC)ncnc4C4CC4)nc32)cc1` [drawing 801] had an IC50 of 0.01 to 0.1 µM.

Consider `COc1ncnc(C2CC2)c1-c1ncc2c(OC)nn([C@@H](C)c3ccc(-c4nc(C(F)(F)F)c(Br)n4C)cc3)c2n1` [drawing 802], for which the IC50 was in the range of 0.01 to 0.1 µM.

For the molecule `COCc1nc2cnc(-c3c(OC)ncnc3C3CC3)nc2n1Cc1ccc(-c2nc(C(F)(F)F)cn2C(C)C)cc1` [drawing 804], the IC50 was 0.01 to 0.1 µM. On the same count and under the same terms, the result for `COc1ncnc(C2CC2)c1-c1ncc2nc(C(C)C)n(Cc3ccc(-c4nc(C(F)(F)F)cn4C(C)C)cc3)c2n1` [drawing 805] reads 0.01 to 0.1 µM.

`CCn1cc(C(F)(F)F)nc1-c1ccc(Cn2nc(OC3CCC3)c3cnc(-c4c(OC)ncnc4C4CC4)nc32)cc1` [drawing 806] gave an IC50 of 0.01 to 0.1 µM.

`COc1ncnc(C2CC2)c1-c1ncc2c(OC)nn(Cc3ccc(-c4cn(C(C)C)c(C(F)(F)F)n4)cc3)c2n1` [drawing 807] yielded an IC50 of 0.01 to 0.1 µM. The same measure, in the same setting: as for `CCc1nc2cnc(-c3c(OC)ncnc3C3CC3)nc2n1Cc1ccc(-c2nc(C(F)(F)F)cn2C(C)C)cc1` [drawing 808], the figure is 0.01 to 0.1 µM; as for `COc1ncnc(C2CC2)c1-c1ncc2c(OC)nn([C@@H](C)c3ccc(-c4nc(C(F)(F)F)cn4CCF)cc3)c2n1` [drawing 809], 0.01 to 0.1 µM. `CCn1cc(C(F)(F)F)nc1-c1ccc(Cn2nc(N3CCC3)c3cnc(-c4c(OC)ncnc4C4CC4)nc32)cc1` [drawing 810] displayed an IC50 of 0.01 to 0.1 µM. In turn, `CCn1c(-c2ccc(Cn3nc(OC)c4cnc(-c5c(OC)ncnc5C5CC5)nc43)cc2)nc(C(F)(F)F)c1Br` [drawing 811] came in with an IC50 of 0.01 to 0.1 µM. `COc1ncnc(C2CC2)c1-c1ncc2c(OC)nn(C(C)c3ccc(-c4nc(C(F)(F)F)cn4CCF)cc3)c2n1` (centres unmarked) [drawing 812] gave an IC50 of 0.01 to 0.1 µM. Still for that read-out and setting: as for `CCn1cc(C(F)(F)F)nc1-c1ccc([C@H](C)n2nc(OC)c3cnc(-c4c(OC)ncnc4C4CC4)nc32)cc1` [drawing 813], the figure is 0.01 to 0.1 µM; as for `COc1ncnc(C2CC2)c1-c1ncc2c(OC)nn([C@@H](C)c3ccc(-c4nc(C(F)(F)F)cn4C(C)C)cc3)c2n1` [drawing 814], 0.01 to 0.1 µM; as for `CCOc1ncnc(C2CC2)c1-c1ncc2c(OCC)nn(Cc3ccc(-c4nc(C(F)(F)F)cn4CC)cc3)c2n1` [drawing 815], 0.01 to 0.1 µM.

The molecule `CCOc1nn(Cc2ccc(-c3nc(C(F)(F)F)cn3CC)cc2)c2nc(-c3c(OC)ncnc3C3CC3)ncc12` [drawing 816] yielded an IC50 of 0.01 to 0.1 µM. Same read-out and setting: as for `CCn1cc(C(F)(F)F)nc1-c1ccc(Cn2nc(OC)c3cnc(-c4c(OC)ncnc4C4CC4)nc32)cc1F` [drawing 817], the figure is 0.01 to 0.1 µM; as for `COc1ncnc(C2CC2)c1-c1ncc2ncn(Cc3ccc(-c4nc(C(F)(F)F)cn4C(C)C)cc3)c2n1` [drawing 818], 0.01 to 0.1 µM. With `CCn1cc(C(F)(F)F)nc1-c1ccc(Cn2nc(OC)c3cnc(-c4c(OC)ncnc4C4CC4)nc32)cc1` [drawing 819], the IC50 lay within 0.01 to 0.1 µM. On the same count and under the same terms, the result for `CCn1cc(C(F)(F)F)nc1-c1ccc(Cn2nc(OC)c3cnc(-c4c(OC)ncnc4C4CC4)nc32)cc1` [drawing 820] reads 0.01 to 0.1 µM. Turning to `COc1ncnc(C2CC2)c1-c1ncc2nc(C)n(Cc3ccc(-c4nc(C(F)(F)F)cn4C)cc3)c2n1` [drawing 821], the IC50 is 0.1 to 0.2 µM.

The molecule `COc1ncnc(C2CC2)c1-c1ncc2nc(C3CC3)n(Cc3ccc(-n4nc(C(F)(F)F)cc4C)cc3)c2n1` [drawing 822] displayed an IC50 of 0.01 to 0.1 µM. On to `COc1ncnc(C2CC2)c1-c1ncc2nc(C3CCC3)n(Cc3ccc(-n4nc(C(F)(F)F)cc4C)cc3)c2n1` [drawing 823], for which the IC50 was in the range of 0.01 to 0.1 µM. `COc1ncnc(C2CC2)c1-c1ncc2nc(C(C)C)n(Cc3ccc(-n4nc(C(F)(F)F)cc4C)cc3)c2n1` [drawing 824]: the IC50 lay within 0.1 to 0.2 µM. The same measure, in the same setting: the result for `CCc1nc2cnc(-c3c(OC)ncnc3C3CC3)nc2n1Cc1ccc(-n2nc(C(F)(F)F)cc2C)cc1` [drawing 825] reads 0.01 to 0.1 µM. Still for that read-out and setting: the result for `COc1ncnc(C2CC2)c1-c1ncc2ccn(Cc3ccc(-c4nc(C(F)(F)F)cn4C)cc3)c2n1` [drawing 826] reads 0.01 to 0.1 µM.

Consider `COc1ncnc(C2CC2)c1-c1ncc2nc(C)n(Cc3ccc(-n4nc(C(F)(F)F)cc4C)cc3)c2n1` [drawing 827], for which the IC50 lay in the range of 0.01 to 0.1 µM. The same measure, in the same setting: the result for `COc1ncnc(C2CC2)c1-c1ncc2nnn(Cc3ccc(-c4nc(C(F)(F)F)cn4C)cc3)c2n1` [drawing 828] reads 0.01 to 0.1 µM. Still for that read-out and setting: the result for `COc1ncnc(C2CC2)c1-c1ncc2ncn(Cc3ccc(-n4nc(C(F)(F)F)cc4C)cc3)c2n1` [drawing 830] reads 0.1 to 0.2 µM; that for `COc1ncnc(C2CC2)c1-c1ncc2ncn(Cc3ccc(-c4nc(C(F)(F)F)cn4C)cc3)c2n1` [drawing 831], 0.1 to 0.2 µM. The same measure, in the same setting: as for `CC(C)c1ccccc1-c1ncc2ncn(Cc3ccc(-c4nc(C(F)(F)F)cn4C)cc3)c2n1` [drawing 832], the figure is 0.01 to 0.1 µM.

Source of the values: patent US11485736B2 (KSQ Therapeutics, Inc., priority 2018, dated 2022).
